Test results: PubChem BioAssay AID1963851 (Molecular Pharmacology Branch, DTP, NCI, 2024)

System: 188146-221-R-J1-PDC complex spheroid viability
Assay: Anticancer human tumor 188146-221-R-J1-PDC patient-derived colon adenocarcinoma cell line growth inhibition [POLQ]
Settings: for IC50: curve of first compound; for viability, T/C: stronger effect = lower value
Summary of the method: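 Growth inhibition in 3D: complex spheroids (tumor PDC, HUVEC, MSC) treated with POLQ inhibitor combinations; where Cmax unknown, highest tested concentration 10 microM, except SN-38 at 1 microM.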

[1] = second compound 0.0316 µM, first compound 0.0316 µM
[2] = second compound 0.0316 µM, first compound 0.1 µM
[3] = second compound 0.0316 µM, first compound 0.316 µM
[4] = second compound 0.0316 µM, first compound 1 µM
[5] = second compound 0.1 µM, first compound 0.0316 µM
[6] = second compound 0.1 µM, first compound 0.1 µM
[7] = second compound 0.1 µM, first compound 0.316 µM
[8] = second compound 0.1 µM, first compound 1 µM
[9] = second compound 0.316 µM, first compound 0.0316 µM
[10] = second compound 0.316 µM, first compound 0.1 µM
[11] = second compound 0.316 µM, first compound 0.316 µM
[12] = second compound 0.316 µM, first compound 1 µM
[13] = second compound 1 µM, first compound 0.0316 µM
[14] = second compound 1 µM, first compound 0.1 µM
[15] = second compound 1 µM, first compound 0.316 µM
[16] = second compound 1 µM, first compound 1 µM
[17] = second compound 3.16 µM, first compound 0.0316 µM
[18] = second compound 3.16 µM, first compound 0.1 µM
[19] = second compound 3.16 µM, first compound 0.316 µM
[20] = second compound 3.16 µM, first compound 1 µM
[21] = second compound 10 µM, first compound 0.0316 µM
[22] = second compound 10 µM, first compound 0.1 µM
[23] = second compound 10 µM, first compound 0.316 µM
[24] = second compound 10 µM, first compound 1 µM
[25] = second compound 0.0316 µM, first compound 3.16 µM
[26] = second compound 0.0316 µM, first compound 10 µM
[27] = second compound 0.1 µM, first compound 3.16 µM
[28] = second compound 0.1 µM, first compound 10 µM
[29] = second compound 0.316 µM, first compound 3.16 µM
[30] = second compound 0.316 µM, first compound 10 µM
[31] = second compound 1 µM, first compound 3.16 µM
[32] = second compound 1 µM, first compound 10 µM
[33] = second compound 3.16 µM, first compound 3.16 µM
[34] = second compound 3.16 µM, first compound 10 µM
[35] = second compound 10 µM, first compound 3.16 µM
[36] = second compound 10 µM, first compound 10 µM
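Also: spheroids exposed to compounds for seven days.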
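For viability, T/C in this document: 100% = DMSO vehicle control viability.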

**Q.** Which IC50 (second compound 0.0316 µM) does the source give for `COc1cccc(OCCCN)c1-c1cc(Nc2cnc(C#N)cn2)n[nH]1` + COC1C(OC(N)=O)C(O)C(Oc2ccc3c(O)c(NC(=O)c4ccc(O)c(CC=C(C)C)c4)c(=O)oc3c2C)OC1(C)C here?
**A.** 28.7 nM

**Q.** And the IC50 (second compound 0.1 µM)?
**A.** 35 nM

**Q.** And the IC50 (second compound 0.316 µM)?
**A.** 39.4 nM

**Q.** And the IC50 (second compound 1 µM)?
**A.** 30.5 nM

**Q.** And the IC50 (second compound 3.16 µM)?
**A.** 27.6 nM

**Q.** And the IC50 (second compound 10 µM)?
**A.** 22.2 nM

**Q.** What about the viability, T/C (second compound 0.0316 µM, first compound 0.00316 µM) of the same compound?
**A.** 105%

**Q.** And the viability, T/C (second compound 0.0316 µM, first compound 0.01 µM)?
**A.** 77.3%

**Q.** What about the viability, T/C [1] of the same compound?
**A.** 51.3%

**Q.** And the viability, T/C [2]?
**A.** 20.1%

**Q.** What about the viability, T/C [3] of the same compound?
**A.** 13%

**Q.** And the viability, T/C [4]?
**A.** 10.6%

**Q.** And the viability, T/C (second compound 0.1 µM, first compound 0.00316 µM)?
**A.** 107%

**Q.** And the viability, T/C (second compound 0.1 µM, first compound 0.01 µM)?
**A.** 96.6%

**Q.** What about the viability, T/C [5] of the same compound?
**A.** 51.9%

**Q.** What about the viability, T/C [6] of the same compound?
**A.** 20.7%

**Q.** And the viability, T/C [7]?
**A.** 12.7%

**Q.** What about the viability, T/C [8] of the same compound?
**A.** 9.49%

**Q.** What about the viability, T/C (second compound 0.316 µM, first compound 0.00316 µM) of the same compound?
**A.** 97%

**Q.** And the viability, T/C (second compound 0.316 µM, first compound 0.01 µM)?
**A.** 80.6%

**Q.** What about the viability, T/C [9] of the same compound?
**A.** 60.2%

**Q.** And the viability, T/C [10]?
**A.** 18%

**Q.** And the viability, T/C [11]?
**A.** 10.6%

**Q.** And the viability, T/C [12]?
**A.** 9.85%

**Q.** And the viability, T/C (second compound 1 µM, first compound 0.00316 µM)?
**A.** 106%

**Q.** What about the viability, T/C (second compound 1 µM, first compound 0.01 µM) of the same compound?
**A.** 90.1%

**Q.** And the viability, T/C [13]?
**A.** 47.6%

**Q.** What about the viability, T/C [14] of the same compound?
**A.** 21%

**Q.** And the viability, T/C [15]?
**A.** 12%

**Q.** What about the viability, T/C [16] of the same compound?
**A.** 9.09%

**Q.** And the viability, T/C (second compound 3.16 µM, first compound 0.00316 µM)?
**A.** 89.5%

**Q.** And the viability, T/C (second compound 3.16 µM, first compound 0.01 µM)?
**A.** 79.8%

**Q.** What about the viability, T/C [17] of the same compound?
**A.** 45.8%

**Q.** And the viability, T/C [18]?
**A.** 18.4%

**Q.** What about the viability, T/C [19] of the same compound?
**A.** 12.5%

**Q.** What about the viability, T/C [20] of the same compound?
**A.** 9.13%

**Q.** What about the viability, T/C (second compound 10 µM, first compound 0.00316 µM) of the same compound?
**A.** 103%

**Q.** And the viability, T/C (second compound 10 µM, first compound 0.01 µM)?
**A.** 83.1%

**Q.** What about the viability, T/C [21] of the same compound?
**A.** 35.1%

**Q.** What about the viability, T/C [22] of the same compound?
**A.** 15.2%

**Q.** What about the viability, T/C [23] of the same compound?
**A.** 11.4%

**Q.** And the viability, T/C [24]?
**A.** 9.97%

**Q.** Which results are given for `Nc1ccn(C2OC(CO)C(O)C2(F)F)c(=O)n1` (stereo unspecified) + Nc1ccc(C#CCN(C(=O)Cc2ncc(C(F)(F)F)cc2C(F)(F)F)c2ccc(F)cc2)nn1?
**A.** IC50 (second compound 0.0316 µM): < 31.6 nM; IC50 (second compound 0.1 µM): < 31.6 nM; IC50 (second compound 0.316 µM): < 31.6 nM; IC50 (second compound 1 µM): < 31.6 nM; IC50 (second compound 3.16 µM): < 31.6 nM; IC50 (second compound 10 µM): < 31.6 nM; viability, T/C [1]: 27.5%; viability, T/C [2]: 18%; viability, T/C [3]: 17.3%; viability, T/C [4]: 17.3%; viability, T/C [25]: 17.6%; viability, T/C [26]: 12.2%; viability, T/C [5]: 33.5%; viability, T/C [6]: 18%; viability, T/C [7]: 18.8%; viability, T/C [8]: 15.2%; viability, T/C [27]: 15.3%; viability, T/C [28]: 16.1%; viability, T/C [9]: 32.9%; viability, T/C [10]: 17.4%; viability, T/C [11]: 15.9%; viability, T/C [12]: 16.3%; viability, T/C [29]: 16.4%; viability, T/C [30]: 15.9%; viability, T/C [13]: 30.1%; viability, T/C [14]: 17.6%; viability, T/C [15]: 18%; viability, T/C [16]: 16.6%; viability, T/C [31]: 19%; viability, T/C [32]: 14.2%; viability, T/C [17]: 27.4%; viability, T/C [18]: 19.8%; viability, T/C [19]: 15.3%; viability, T/C [20]: 17.1%; viability, T/C [33]: 16.6%; viability, T/C [34]: 15.4%; viability, T/C [21]: 40.4%; viability, T/C [22]: 23.2%; viability, T/C [23]: 20.3%; viability, T/C [24]: 19.1%; viability, T/C [35]: 19.4%; viability, T/C [36]: 14.9%

**Q.** With `CC1COCCN1c1cc(C2(O)CC3CCC(C2)O3)c2cnn(-c3ccn[nH]3)c2n1` (stereo unspecified) + Nc1ccc(C#CCN(C(=O)Cc2ncc(C(F)(F)F)cc2C(F)(F)F)c2ccc(F)cc2)nn1 as the compound, how does the IC50 (second compound 0.0316 µM) read?
**A.** 328 nM

**Q.** And the IC50 (second compound 0.1 µM)?
**A.** 350 nM

**Q.** And the IC50 (second compound 0.316 µM)?
**A.** 249 nM

**Q.** What about the IC50 (second compound 1 µM) of the same compound?
**A.** 288 nM

**Q.** And the IC50 (second compound 3.16 µM)?
**A.** 289 nM

**Q.** And the IC50 (second compound 10 µM)?
**A.** 209 nM

**Q.** What about the viability, T/C [1] of the same compound?
**A.** 88.7%

**Q.** And the viability, T/C [2]?
**A.** 76.8%

**Q.** And the viability, T/C [3]?
**A.** 49.4%

**Q.** And the viability, T/C [4]?
**A.** 27%

**Q.** And the viability, T/C [25]?
**A.** 18.9%

**Q.** What about the viability, T/C [26] of the same compound?
**A.** 8.36%

**Q.** What about the viability, T/C [5] of the same compound?
**A.** 109%

**Q.** And the viability, T/C [6]?
**A.** 77.2%

**Q.** What about the viability, T/C [7] of the same compound?
**A.** 54.2%

**Q.** And the viability, T/C [8]?
**A.** 29.2%

**Q.** And the viability, T/C [27]?
**A.** 18%

**Q.** What about the viability, T/C [28] of the same compound?
**A.** 8.08%

**Q.** What about the viability, T/C [9] of the same compound?
**A.** 105%

**Q.** What about the viability, T/C [10] of the same compound?
**A.** 72.1%

**Q.** What about the viability, T/C [11] of the same compound?
**A.** 44.2%

**Q.** What about the viability, T/C [12] of the same compound?
**A.** 24.3%

**Q.** And the viability, T/C [29]?
**A.** 17%

**Q.** What about the viability, T/C [30] of the same compound?
**A.** 7.87%

**Q.** What about the viability, T/C [13] of the same compound?
**A.** 95.8%

**Q.** What about the viability, T/C [14] of the same compound?
**A.** 70.5%

**Q.** And the viability, T/C [15]?
**A.** 52%

**Q.** And the viability, T/C [16]?
**A.** 24.3%

**Q.** What about the viability, T/C [31] of the same compound?
**A.** 15.6%

**Q.** And the viability, T/C [32]?
**A.** 8.87%

**Q.** And the viability, T/C [17]?
**A.** 89.9%

**Q.** What about the viability, T/C [18] of the same compound?
**A.** 80.7%

**Q.** What about the viability, T/C [19] of the same compound?
**A.** 43.9%

**Q.** And the viability, T/C [20]?
**A.** 26%

**Q.** What about the viability, T/C [33] of the same compound?
**A.** 18.2%

**Q.** What about the viability, T/C [34] of the same compound?
**A.** 7.84%

**Q.** What about the viability, T/C [21] of the same compound?
**A.** 87.7%

**Q.** What about the viability, T/C [22] of the same compound?
**A.** 66%

**Q.** What about the viability, T/C [23] of the same compound?
**A.** 41.4%

**Q.** And the viability, T/C [24]?
**A.** 21.1%

**Q.** And the viability, T/C [35]?
**A.** 18.1%

**Q.** And the viability, T/C [36]?
**A.** 7.06%
